Data reported in patent US20170314074A1, “LPA-ASSOCIATED PROTEIN AND RNA EXPRESSION” (Intermune, Inc., priority 2014, published 2017).

Test system: normal human lung fibroblasts
Assay: mRNA expression after LPA induction, Affymetrix Human Gene ST arrays, fibroblasts (Table 4A)
Assay type: cell-based
Details: LPA-induced fibroblasts; 1 μM BMS-986020; average of 3 experiments
Protocol: Changes in gene expression after 3 hours of LPA induction were profiled on Affymetrix Human Gene ST 2.0 microarrays; differentially expressed genes identified by ANOVA with FDR <0.05 and fold-change >1.2. Process networks associated with differentially expressed genes were defined using MetaCore. Changes in secreted protein expression after 24 hours of LPA induction were profiled on an aptamer-based proteomic platform (1129 proteins); differentially expressed proteins identified by t-test.
Total RNA was isolated from normal human lung fibroblasts, human bronchial epithelial cells, and human pulmonary alveolar epithelial cells treated for […] with LPA and/or LPAR1 inhibitor. Each treatment condition was assayed in triplicate. Samples were profiled on Affymetrix Human Gene ST Arrays 1.0 and/or 2.0 after preparation using the Ambion WT Expression Kit according to manufacturers' instructions.
Data normalization and all subsequent analyses were performed in Partek Genomics Suite (Partek, St. Louis, Mo.). Data were normalized using the Robust Multi-array Average (RMA) algorithm. Differentially expressed genes were identified by ANOVA with correction for multiple comparisons with p-value with FDR<0.05. A fold-change cut-off was not strictly applied, although the majority of the differentially expressed genes identified have fold-changes greater than 1.2. Genes were included if they were statistically significant for (1) LPA-induction and (2) response to treatment with an LPAR1 inhibitor.
In Tables 1-5 The differentially expressed secreted proteins set forth in Tables 1, 2, and 5 and the differentially expressed mRNAs set forth in Table 3 and 4 were identified by visual inspection of individual dot-plots.
For the gene and protein expression analysis primary fibroblasts (NHLF product #CC-2512 from Lonza group LTD) and primary epithelial cells (NHBE Product #CC-2540 from Lonza; HPAEpiC Product #3200 from Sciencell (USA, California)) were cultured as recommended by the manufacturer, except they were cultured on collagen coated plates. As part of the induction protocol cells were starved overnight in low (0.2 or 0.1% serum) or no serum (0%), prior to stimulation with LPA.

SMILES: Cc1noc(-c2ccc(-c3ccc(C4(C(=O)O)CC4)cc3)cc2)c1NC(=O)O[C@H](C)c1ccccc1 [BMS-986020]
- Effect of 1 μM BMS-986020 relative to induced cells (fold-change), BIRC3 mRNA: −3.33 fold-change
- Effect of 1 μM BMS-986020 relative to induced cells (fold-change), CHIC2 mRNA: −2.40 fold-change
- Effect of 1 μM BMS-986020 relative to induced cells (fold-change), CNST mRNA: −2.32 fold-change
- Effect of 1 μM BMS-986020 relative to induced cells (fold-change), CTGF mRNA: −4.62 fold-change
- Effect of 1 μM BMS-986020 relative to induced cells (fold-change), CYR61 mRNA: −7.53 fold-change
- Effect of 1 μM BMS-986020 relative to induced cells (fold-change), DKK1 mRNA: −6.16 fold-change
- Effect of 1 μM BMS-986020 relative to induced cells (fold-change), DUSP1 mRNA: −2.56 fold-change
- Effect of 1 μM BMS-986020 relative to induced cells (fold-change), EFNB2 mRNA: −2.63 fold-change
- Effect of 1 μM BMS-986020 relative to induced cells (fold-change), GPR37 mRNA: −3.13 fold-change
- Effect of 1 μM BMS-986020 relative to induced cells (fold-change), HAS2 mRNA: −2.89 fold-change
- Effect of 1 μM BMS-986020 relative to induced cells (fold-change), HBEGF mRNA: −5.41 fold-change
- Effect of 1 μM BMS-986020 relative to induced cells (fold-change), IER3 mRNA: −3.28 fold-change
- Effect of 1 μM BMS-986020 relative to induced cells (fold-change), IL6 mRNA: −4.08 fold-change
- Effect of 1 μM BMS-986020 relative to induced cells (fold-change), KPRP mRNA: −3.81 fold-change
- Effect of 1 μM BMS-986020 relative to induced cells (fold-change), KRTAP1-5 mRNA: −6.89 fold-change
- Effect of 1 μM BMS-986020 relative to induced cells (fold-change), KRTAP4-12 mRNA: −3.90 fold-change
- Effect of 1 μM BMS-986020 relative to induced cells (fold-change), LIF mRNA: −5.07 fold-change
- Effect of 1 μM BMS-986020 relative to induced cells (fold-change), MCP-1/CCL2 mRNA: −5.99 fold-change
- Effect of 1 μM BMS-986020 relative to induced cells (fold-change), MIR218-1: −2.82 fold-change
- Effect of 1 μM BMS-986020 relative to induced cells (fold-change), PAI-1 mRNA: −2.43 fold-change
- Effect of 1 μM BMS-986020 relative to induced cells (fold-change), PDCD1LG2 mRNA: −2.51 fold-change
- Effect of 1 μM BMS-986020 relative to induced cells (fold-change), PTX3 mRNA: −2.49 fold-change
- Effect of 1 μM BMS-986020 relative to induced cells (fold-change), SERPINB2 mRNA: −2.64 fold-change
- Effect of 1 μM BMS-986020 relative to induced cells (fold-change), TNFAIP3 mRNA: −3.68 fold-change
- Effect of 1 μM BMS-986020 relative to induced cells (fold-change), TXNIP mRNA: 4.41 fold-change
- Effect of 1 μM BMS-986020 relative to induced cells (fold-change), UGCG mRNA: −2.52 fold-change
- Effect of 1 μM BMS-986020 relative to induced cells (fold-change), VGLL3 mRNA: −2.97 fold-change
